The results in this text go back to US20130203718A1 (priority 2010, published 2013).

Structures are written as SMILES.

In the first assay the target is T1, hPRB (Homo sapiens, UniProt P06401).
T1 sequence (P06401 1-933): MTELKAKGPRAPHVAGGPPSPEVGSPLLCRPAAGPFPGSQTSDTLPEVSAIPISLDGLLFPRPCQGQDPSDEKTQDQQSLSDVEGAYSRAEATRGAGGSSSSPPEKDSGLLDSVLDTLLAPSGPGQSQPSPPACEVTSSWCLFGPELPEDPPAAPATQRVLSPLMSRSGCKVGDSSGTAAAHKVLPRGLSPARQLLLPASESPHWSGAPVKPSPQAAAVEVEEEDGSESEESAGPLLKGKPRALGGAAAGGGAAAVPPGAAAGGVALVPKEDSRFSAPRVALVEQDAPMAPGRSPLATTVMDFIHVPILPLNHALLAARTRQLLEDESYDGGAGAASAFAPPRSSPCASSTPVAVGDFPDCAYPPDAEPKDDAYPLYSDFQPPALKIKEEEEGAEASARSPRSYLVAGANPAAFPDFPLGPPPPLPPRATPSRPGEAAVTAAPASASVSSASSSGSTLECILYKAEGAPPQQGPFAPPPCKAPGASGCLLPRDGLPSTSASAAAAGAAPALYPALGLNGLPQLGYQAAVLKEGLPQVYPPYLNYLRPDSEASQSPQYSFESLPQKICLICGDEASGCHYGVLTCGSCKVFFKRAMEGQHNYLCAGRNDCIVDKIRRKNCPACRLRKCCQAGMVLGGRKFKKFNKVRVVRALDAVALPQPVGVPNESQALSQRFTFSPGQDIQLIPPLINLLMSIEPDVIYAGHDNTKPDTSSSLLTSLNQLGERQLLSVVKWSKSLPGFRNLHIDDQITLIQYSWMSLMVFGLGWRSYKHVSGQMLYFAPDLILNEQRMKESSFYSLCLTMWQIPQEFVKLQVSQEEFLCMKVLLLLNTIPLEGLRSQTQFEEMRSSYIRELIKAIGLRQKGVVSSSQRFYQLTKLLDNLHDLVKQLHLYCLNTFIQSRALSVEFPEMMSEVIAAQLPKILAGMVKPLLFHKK
In words: PR transactivation assay (GRE2-Luc) in MDA-MB-231 iPRAB cells conditionally expressing hPRB. Type of assay: cell-based. More on the design: expressed in transfected cells.
Conditions: not given
The procedure:
Establishment of the MDA-MB-231 iPRAB cells.
The PR negative breast cancer cells MDA-MB-231 were routinely maintained in RPMI 1640 medium with L-glutamine enriched with 5% fetal calf serum (FCS) and supplemented with antibiotics (penicillin 100 UI/ml, streptomycin 100 μg/ml). MDA MB-231 iPRAB cells allowing the bi-inducible expression of PRA and PRB isoforms were generated in two steps. First, pZX-TR vector expressing inducer proteins required for Tet-on (Tet-Repressor) and Ecdysone receptor-based system (EcR and RXR hybrids) was engineered using pcDNA6-TR (T-REx system, Invitrogen) and pZRD (Lessard, J. Prostate 2007 67, 808) derived from Rheoswitch system (NE Biolabs). Transfection of MDA-MB-231 cells by pZX-TR (harboring zeocin resistant gene) was performed using Lipofectamine 2000 (Invitrogen). Three hundred clones resistant to Zeocin (1 μg/ml) were isolated, amplified and screened for the proper functioning of both RheoSwitch and Tet-on inducible systems by transient transfection with pGal-4-luciferase or pTO-luciferase reporter genes generated as described. Luciferase activity was determined in the absence or presence of respective inducer ligand RSL1 (diacylhydrazine, a non-steroidal agonist of ecdysone, NE Biolabs) (500 nM) or Doxycycline (Dox, a tetracyclin analog, Sigma-Aldrich) (1 μg/ml) after 24 h. The clone that produced minimal background in the absence of both RSL1 and Dox and high inducible expression level on reporter gene assays by both systems was finally selected, verified and amplified (clone 250). This cell line was then further stably transfected by PR isoforms expressing vectors specifically engineered: pGaluas-PRA (harboring neomycin resistant gene) expressing PRA under the control of Gal4 Upstream Activating Sequences upstream of a truncated CMV promoter, and pTO-PRB (harboring blasticidin resistant gene) expressing PRB under the control of TetO2 responsive elements downstream of the full CMV promoter. Clones resistant to zeocin (1 μg/ml), neomycin (500 μg/ml) and blasticidin (2 μg/ml) were then isolated, amplified and screened by Western blot for PR isoforms expression in the absence or presence of both RSL1 (500 nM) and Dox (1 μg/ml) after 24 h. […] It was used to evaluate APRn properties and was defined as MDA-MB-231 iPRAB cells conditionally expressing PRB in the presence of doxycyclin (1 μg/ml).
PR Transactivation Assays in MDA-MB-231 iPRAB Cells.
The cells were cultured in 96-well plates in RPMI 1640 medium with L-glutamine without phenol red, enriched with 5% DCC serum containing inducer ligand RSL1 (500 nM) or Dox (1 μg/ml) for PRA or PRB expression during 24 h. Cells were then transfected with GRE2-Luc (100 ng) and β-galactosidase (20 ng) plasmids during 6 h, using Lipofectamine 2000 (Invitrogen). […] Whole cell extracts were collected using lysis buffer (Promega). Luciferase and β-galactosidase activity or total protein contents (BCA assay) were determined using a luminometer (Victor 378, Perkin Elmer). Luciferase activity was normalized by β-galactosidase activity or total protein contents.
All the synthesized APRn were classified in 4 series depending on the nature of their C3 substituent (R1/R′1 groups). The first one (series 1) includes APRn with no C3 substituent (R1═R′1═H) whereas series 2, 3 and 4 are related to APRn bearing a methoxyl (R1═OMe), a hydroxyl (R1═OH) and a fluorine atom (R1═F), respectively. The agonist/antagonist activities of APRn were determined either in human HEK293T cells transiently expressing hPRB or in human MDA-MB-231 iPRAB cells conditionally expressing hPRB, by using a luciferase reporter gene placed under the control of a glucocorticoid response element (GRE2-Luc). The APRn “agonist efficacy” was determined from the luciferase activity measured in the presence of APRn (1 μM). […] The “agonist efficacy” and “antagonist efficacy” are expressed as defined in the biological protocols section.
For orientation: IC50 means the concentration needed to halve the response being measured. Turning to `C[C@]12CCC3C(CC=C4C[C@@H](F)CC[C@@H]43)C1CCC2=O` (stereo partly drawn) [APR-47, 3β-Fluoro-19-nor-androst-5-en-17-one], the IC50 is around 0.5 µM.

Take `CC#C[C@]1(O)CCC2C3CC=C4C[C@@H](F)CC[C@@H]4C3CC[C@@]21C` (stereo partly drawn) [APR-51, 3β-Fluoro-17α-(1-propynyl)-19-nor-androst-5-en-17β-ol]: the IC50 was around 0.5 µM.

With `CC#C[C@]1(O)CCC2C3CC[C@H]4C[C@@H](F)CC[C@]4(C)C3CC[C@@]21C` (stereo partly drawn) [APR-43, 3β-Fluoro-17α-(1-propynyl)-5α-androstan-17β-ol], the IC50 was around 0.5 µM.

In turn, `C[C@@H]1CCC2C3CC=C4C[C@@H](F)CC[C@]4(C)C3CC[C@]2(C)[C@H]1F` (stereo partly drawn) [APR-19, 3β,17α-Difluoro-17α-methyl-D-Homo-pregn-5-ene] came in with an IC50 of around 0.5 µM.

The compound `CC#C[C@]1(O)CCC2C3CC[C@H]4CCCC[C@@H]4C3CC[C@@]21C` (stereo partly drawn) [APR-54, 17α-(1-Propynyl)-19-nor-5-androstan-17β-ol] came in with an IC50 of around 0.5 µM.

The same assay, now with this note: dose response curves, MDA-MB-231 iPRAB cells expressing hPRB, FIG. 9; read-out: IC50.
On to `CC(=O)[C@H]1CC[C@H]2[C@@H]3CC=C4C[C@@H](F)CC[C@]4(C)[C@H]3CC[C@]12C` [APR-16, 3β-Fluoropregn-5-en-20-one], for which the IC50 was around 0.5 µM.
